Experimental data: patent publication US20260226031A1, “NOVEL COMPOUNDS” (NRG THERAPEUTICS LTD., priority 2023, published 2026)

Columns and labels:
[1] = system: mPTP; assay: mPTP activity (Ca2+ retention) assay in isolated rat liver mitochondria; assay type: biochemical; conditions: isolated rat liver mitochondria; Fluo5N fluorescence at 10 min after CaCl2 (75 μM) bolus; DMSO 0%, 5 μM cyclosporin A 100% inhibition
Description: Pharmacological inhibition or modulation of the mPTP can be measured in well characterised ‘Ca^2+ retention’ assays performed in isolated mitochondria. In vitro, isolated mitochondria rapidly sequester exogenous Ca^2+ until the intramitochondrial Ca^2+ concentration reaches the threshold for mPTP activation. Once the pore is activated, mitochondrial integrity is compromised and the stored Ca^2+ is released. The distribution of Ca^2+ between extra- and intra-mitochondrial compartments can be measured in real time with the use of membrane-impermeant Ca^2+ sensitive fluorescent dyes. Depending on the configuration of the assay, inhibition or modulation of the mPTP either delays the opening of the pore or increases the concentration of Ca^2+ required to induce mPTP opening.
MPTP activity was measured in mitochondria freshly isolated from female Sprague Dawley (250 to 300 gram) rat livers using the following method. Cervical dislocation was performed on the rat. The liver was then perfused in-situ with ~40 ml cold Dulbecco's Phosphate Buffered Saline (DPBS) prior to dissection and transferred into 30 ml Isolation Buffer (250 mM Sucrose, 10 mM KCl, 1 mM EGTA, 1 mM EDTA, 25 mM HEPES, adjusted to pH 7.5 with 1M NaOH). Each lobe of the liver was then removed from the buffer, minced using tweezers and a scalpel into ~5 mm pieces then transferred into a 50 ml Potterton dounce homogenization tube on ice containing 30 ml ice-cold centrifugation buffer (300 mM Trehalose, 25 mM HEPES, 1 mM EGTA, 1 mM EDTA, 10 mM KCl, adjusted to pH 7.5 with 1M NaOH and supplemented with 0.1% bovine serum albumin (BSA) and complete protease inhibitor cocktail (one tablet of inhibitor per 50 mls of buffer). Homogenisation was carried out using a Teflon® pestle at 1800 rpm. The slurry was centrifuged at 800 g for 10 min at 4° C., then the supernatant centrifuged at 10,000 g for 10 min. The pellet was washed once with FLIPR assay buffer (75 mM Mannitol, 25 mM Sucrose, 5 mM Potassium Phosphate Monobasic, 20 mM Tris base, 100 mM KCl, 0.1% BSA adjusted to pH 7.4 with 5M HCl) centrifuged again, then resuspended in FLIPR assay buffer to a concentration of 8.8 mg/ml protein.
Tested compounds (10 mM stock in DMSO) were serially diluted in DMSO in half log steps to generate 10 test concentrations (final concentrations in assay 30 μM to 1 nM). An intermediate dilution of 5 μl DMSO samples into 247 μl FLIPR assay buffer was carried out prior to transfer of 5 μl into duplicate wells of a 384 well polypropylene assay plate. Control wells were 0.5% (v/v) DMSO and 5 μM cyclosporin A.
A stock mitochondria/Fluo5N assay solution was prepared in 5.6 ml FLIPR assay buffer (at RT) supplemented with succinate disodium salt (10 mM), rotenone (1 μM), Fluo5N pentapotassium salt (2 μM) and 1 ml mitochondria suspension, then transferred (15 μl) into the assay plate containing test compounds and incubated for 10 min at RT. Assay plates were processed for fluorescence detection on either a FLIPR Tetra (Molecular Devices) or CLARIOstar (BMG) plate reader. For kinetic fluorescence detection on the FLIPR, dye fluorescence was measured every 3 sec for a total of 10 min. After 12 sec, a 2.5 μl bolus of CaCl2 (75 μM) was added from a source plate containing 675 μM CaCl2 in FLIPR assay buffer. Alternatively, the 2.5 μl addition of CaCl2 was performed using a Viaflow 384, plates were incubated at RT for 10 min, and dye fluorescence measured after 10 min on the CLARIOstar plate reader. pIC50 values for tested compounds were calculated using the fluorescence value collected at the 10 min timepoint on either plate reader, with % inhibition calculated using the DMSO control and cyclosporin A values as 0 and 100% respectively.

[2] = system: mPTP; assay: mPTP activity (Ca2+ retention) assay in isolated rat brain mitochondria; assay type: biochemical; conditions: isolated rat brain mitochondria; Fluo5N fluorescence at 10 min after Ca2+ (75 μM) bolus
Description: MPTP activity was measured in brain mitochondria freshly isolated from female Sprague Dawley (250 to 300 gram) rats. Anaesthetised rats were perfused in-situ with ~40 ml cold Dulbecco's Phosphate Buffered Saline (DPBS), then brains dissected and transferred into 30 ml Isolation Buffer (225 mM mannitol, 75 mM sucrose, 1 mM EGTA, adjusted to pH 7.4 with 1M NaOH). The brain was minced using tweezers and a scalpel into ~5 mm pieces then transferred into a 50 ml Potterton Dounce homogenization tube on ice containing 10 ml ice-cold isolation buffer (as above with addition of Complete Protease inhibitor; 1 tablet per 50 ml buffer). Homogenisation was carried out using a Teflon® pestle at 1800 rpm. The slurry was centrifuged at 2000 g for 10 min at 4° C., then the supernatant centrifuged at 12,000 g for 9 min. The pellet was resuspended with a dounce homogeniser in isolation buffer as above but with the addition of 0.02% digitonin, centrifuged at 12,000 g for 11 min and finally resuspended in 5 ml modified isolation buffer (as above but with EGTA reduced to 0.1 mM).
Test compounds were prepared in 384 well polypropylene assay plates as described above for the liver mitochondria assay. A stock mitochondria/Fluo5N assay solution was prepared in 5.6 ml assay buffer (120 mM mannitol, 40 mM MOPS, 5 mM KH2PO4, 60 mM KCl, 10 mM pyruvate, 2 mM malate, 2 mM MgCl2, 20 μM ADP, 1.26 μM oligomycin A, adjusted to pH 7.4) supplemented with Fluo5N pentapotassium salt (2 μM) and 1 ml mitochondria suspension, then transferred (15 μl) into the assay plate containing test compounds and incubated for 10 min at RT. Assay plates were then transferred to a FLIPR Tetra plate reader (Molecular Devices). Dye fluorescence was then measured every 3 sec for a total of 10 min.

SMILES	mPTP Rat liver pIC50* [1]	mPTP Rat brain pIC50 [2]
CC1CN(C(=O)c2cncc(=O)[nH]2)CC1c1ccccc1 (stereo not drawn) [Example 13, 6-(3-methyl-4-phenylpyrrolidine-1-carbonyl)pyrazin-2(1H)-one]	4.55	
O=C(c1noc(=O)[nH]1)N1CC(c2cccc(F)c2)C2(CCC2)C1 (single isomer, unassigned) [Example 49b, 3-(8-(3-fluorophenyl)-6-azaspiro[3.4]octane-6-carbonyl)-1,2,4-oxadiazol-5(4H)-one]		<4.52
O=C(c1noc(=O)[nH]1)N1CC(c2cccc(F)c2F)C2(CCC2)C1 (single isomer, unassigned) [Example 44a, 3-(8-(2,3-difluorophenyl)-6-azaspiro[3.4]octane-6-carbonyl)-1,2,4-oxadiazol-5(4H)-one]	5.63	7.33
O=C(c1noc(=O)[nH]1)N1CC(c2cccc(F)c2F)C2(CCC2)C1 (single isomer, unassigned) [Example 44b, 3-(8-(2,3-difluorophenyl)-6-azaspiro[3.4]octane-6-carbonyl)-1,2,4-oxadiazol-5(4H)-one]	<4.52	5.19
CC1(C)CN(C(=O)c2cncc(=O)[nH]2)CC1c1ccccc1 (single isomer, unassigned) [Example 10a, 6-(3,3-dimethyl-4-phenylpyrrolidine-1-carbonyl)pyrazin-2(1H)-one]	6.18	7.03
CC1(C)CN(C(=O)c2cncc(=O)[nH]2)CC1c1ccccc1 (stereo not drawn) [Example 8, 6-(3,3-dimethyl-4-phenylpyrrolidine-1-carbonyl)pyrazin-2(1H)-one]	6.04	6.97
Cn1nc(C(=O)N2CC(c3ccccc3)C3(CCC3)C2)[nH]c1=O (stereo not drawn) [Example 5a, 2-methyl-5-(8-phenyl-6-azaspiro[3.4]octane-6-carbonyl)-2,4-dihydro-3H-1,2,4-triazol-3-one]	5.04	
N#Cc1ccc(C2CN(C(=O)c3cncc(=O)[nH]3)CC23CCC3)cc1 (single isomer, unassigned) [Example 20b, 4-[6-(6-oxo-1H-pyrazine-2-carbonyl)-6-azaspiro[3.4]octan-8-yl]benzonitrile]	<4.52	<4.52
O=C(c1cncc(=O)[nH]1)N1CC(c2ccc(F)cc2)C2(CCC2)C1 (single isomer, unassigned) [Example 35b, 6-(8-(4-fluorophenyl)-6-azaspiro[3.4]octane-6-carbonyl)pyrazin-2(1H)-one]	5.57	5.79
O=C(c1nccc(=O)[nH]1)N1CC(c2ccccc2)C2(CCC2)C1 (single isomer, unassigned) [Example 21a, 2-[8-phenyl-6-azaspiro[3.4]octane-6-carbonyl]-3H-pyrimidin-4-one]	5.94	6.98
O=C(c1noc(=O)[nH]1)N1CC(c2ccccc2)C2(CCC2)C1 (stereo not drawn) [Example 24, 3-[8-Phenyl-6-azaspiro[3.4]octane-6-carbonyl]-4H-1,2,4-oxadiazol-5-one]	6.02	6.75
O=C(c1cccc(=O)[nH]1)N1CC(c2ccccc2)C2(CCC2)C1 (single isomer, unassigned) [Example 26b, 6-(8-phenyl-6-azaspiro[3.4]octane-6-carbonyl)pyridin-2(1H)-one]	<4.52	<4.52
O=C(c1cncc(=O)[nH]1)N1CC2(CCC2)C1c1ccccc1 (stereo not drawn) [Example 12, 6-(1-phenyl-2-azaspiro[3.3]heptane-2-carbonyl)pyrazin-2(1H)-one]	<4.52	
CCC1CN(C(=O)c2cncc(=O)[nH]2)CC1c1ccccc1 (single isomer, unassigned) [Example 15d, 6-(3-ethyl-4-phenylpyrrolidine-1-carbonyl)pyrazin-2(1H)-one]	<4.52	<4.52
O=C(c1cncc(=O)[nH]1)N1CC(c2cc(Cl)ccc2F)C2(CCC2)C1 (single isomer, unassigned) [Example 32b]	<4.52	<4.52
O=C(c1cncc(=O)[nH]1)N1CC(c2cccc(F)c2)C2(CCC2)C1 (single isomer, unassigned) [Example 40b, 6-(8-(3-fluorophenyl)-6-azaspiro[3.4]octane-6-carbonyl)pyrazin-2(1H)-one]	4.97	<4.52
O=C(c1cncc(=O)[nH]1)N1CC(c2ccc(Cl)cc2)C2(CCC2)C1 (single isomer, unassigned) [Example 16a, 6-[8-(4-Chlorophenyl)-6-azaspiro[3.4]octane-6-carbonyl]-1H-pyrazin-2-one]	5.58	6.39
O=C(c1cc(O)no1)N1CC(c2cccc(F)c2F)C2(CCC2)C1 (single isomer, unassigned) [Example 39a, (8-(2,3-difluorophenyl)-6-azaspiro[3.4]octan-6-yl)(3-hydroxyisoxazol-5-yl)methanone]	6.47	7.41
O=C(c1cc(O)ccn1)N1CC(c2ccccc2)C2(CCC2)C1 (stereo not drawn) [Example 3, (4-hydroxypyridin-2-yl)(8-phenyl-6-azaspiro[3.4]octan-6-yl)methanone]	5.14	
O=C(c1cnn[nH]1)N1CC(c2ccccc2)C2(CCC2)C1 (single isomer, unassigned) [Example 14b, 8-phenyl-6-(3H-1,2,3-triazole-4-carbonyl)-6-azaspiro[3.4]octane]	<4.52	
O=C(c1noc(=O)[nH]1)N1CC(c2cccc(F)c2)C2(CCC2)C1 (single isomer, unassigned) [Example 49a, 3-(8-(3-fluorophenyl)-6-azaspiro[3.4]octane-6-carbonyl)-1,2,4-oxadiazol-5(4H)-one]	6.52	
O=C(c1cncc(O)c1)N1CC(c2ccccc2)C2(CCC2)C1 (single isomer, unassigned) [Example 1c, (5-hydroxypyridin-3-yl)(8-phenyl-6-azaspiro[3.4]octan-6-yl)methanone]	<4.52	
